Reference: patent publication US9643916B2, “Low molecular weight cationic lipids for oligonucleotide delivery” (SIRNA THERAPEUTICS, INC., priority 2010, dated 2017)

Tests used:
[1] = test system: mRNA transcript for the firefly (Photinus pyralis) luciferase gene; assay: Mouse in vivo evaluation of efficacy (luciferase mouse model, liver luminescence by IVIS imaging); details: LSL-Luc transgenic mice, Luc siRNA RDVs tail vein injected, 0.3 to 3 mg/kg siRNA, imaged 48 hours post dose; compared with RDV containing octyl-CLinDMA (OCD); FIG. 1
Description: LNPs utilizing Compounds 1-2, in the nominal compositions described immediately above, were evaluated for in vivo efficacy and induction of inflammatory cytokines in a luciferase mouse model. The siRNA targets the mRNA transcript for the firefly (Photinus pyralis) luciferase gene (Accession #M15077). […] The in vivo luciferase model employs a transgenic mouse in which the firefly luciferase coding sequence is present in all cells. ROSA26-LoxP-Stop-LoxP-Luc (LSL-Luc) transgenic mice licensed from the Dana Farber Cancer Institute are induced to express the Luciferase gene by first removing the LSL sequence with a recombinant Ad-Cre virus (Vector Biolabs). Due to the organo-tropic nature of the virus, expression is limited to the liver when delivered via tail vein injection. Luciferase expression levels in liver are quantitated by measuring light output, using an IVIS imager (Xenogen) following administration of the luciferin substrate (Caliper Life Sciences). Pre-dose luminescence levels are measured prior to administration of the RDVs. Luciferin in PBS (15 mg/mL) is intraperitoneally (IP) injected in a volume of 150 μL. […] In vivo efficacy results are expressed as % inhibition of luminescence relative to pre-dose luminescence levels. Plasma cytokine levels were determined using the SearchLight multiplexed cytokine chemiluminescent array (Pierce/Thermo). […]

[2] = test system: mRNA transcript for the ApoB gene; assay: Rat in vivo evaluation of efficacy (liver ApoB mRNA by quantitative RT-PCR); details: Sprague-Dawley female rats, ApoB siRNA RDV tail vein injected, necropsy 24 hours after dosing; compared with RDV containing octyl-CLinDMA; FIG. 2
Description: (§1) Six hours post dose, food is removed from the cages. Animal necropsy is performed 24 hours after LNP dosing. Rats are anesthetized under isoflurane for 5 minutes, then maintained under anesthesia by placing them in nose cones continuing the delivery of isoflurane until ex-sanguination is completed. Blood is collected from the vena cava using a 23 gauge butterfly venipuncture set and aliquoted to serum separator vacutainers for serum chemistry analysis. Punches of the excised caudate liver lobe are taken and placed in RNALater (Ambion) for mRNA analysis. Preserved liver tissue was homogenized and total RNA isolated using a Qiagen bead mill and the Qiagen miRNA-Easy RNA isolation kit following the manufacturer's instructions. Liver ApoB mRNA levels were determined by quantitative RT-PCR. Message was amplified from purified RNA utilizing a rat ApoB commercial probe set (Applied Biosystems Cat # RN01499054_m1). The PCR reaction was performed on an ABI 7500 instrument with a 96-well Fast Block. The ApoB mRNA level is normalized to the housekeeping PPIB (NM 011149) mRNA. PPIB mRNA levels were determined by RT-PCR using a commercial probe set (Applied Biosystems Cat. No. Mm00478295_m1). Results are expressed as a ratio of ApoB mRNA/PPIB mRNA. All mRNA data is expressed relative to the PBS control dose. […]

[3] = Rat in vivo toxicity (serum ALT and AST); details: Sprague-Dawley female rats, serum 24 hours after LNP dosing; compared with RDV containing octyl-CLinDMA; FIG. 3
Description: as §1

## CCCCC/C=C\C/C=C\CCCCCCCCOC[C@H](COCCCCCCCC)N(C)C [Compound 1, S-N,N-dimethyl-1-[(9Z,12Z)-octadeca-9,12-dien-1-yloxy]-3-(octyloxy)propan-2-amine]
[1]
  In vivo efficacy, % inhibition of luminescence relative to pre-dose luminescence levels: Greater efficacy
[2]
  In vivo efficacy, liver ApoB mRNA/PPIB mRNA relative to the PBS control dose: Greater efficacy
[3]
  Elevations in LFTs (ALT/AST): lower elevations in LFTs (ALT/AST)
